Reference: patent US20240218022A1, “ANTI-VISTA MACROCYCLIC PEPTIDES AND COMPOSITIONS” (BRISTOL-MYERS SQUIBB COMPANY, priority 2022, published 2024)
Starred links: 1 amine or outer side, 2 acyl side, 3 side chain; linkers in the order of their positions; H or OH if unused. Positions of bridges follow the written chain, without caps; N, C: chain ends. Non-standard residues stand in square brackets, D forms with d. Residues, ends and D or L forms follow the SMILES beside them. ξ: configuration not given here. γGlu = O=C(O)[C@H](CCC(=O)[*:2])N[*:1]; NMeThr(3ξ) = CN[C@H](C(=O)O)C(C)O; NMeL = CN[C@@H](CC(C)C)C(=O)O; Ahp(2) = CCCCC[C@H](N)C(=O)O; NMeNle = CCCC[C@H](NC)C(=O)O; Tle = CC(C)(C)[C@H](N)C(=O)O; NMeV = CN[C@H](C(=O)O)C(C)C; NMeS = CN[C@@H](CO)C(=O)O; NHexGly = CCCCCCNCC(=O)O; Orn = NCCC[C@H](N)C(=O)O; Aun = NCCCCCCCCCCC(=O)O; AEEA = NCCOCCOCC(=O)O

molecular target: T1, mouse VISTA (mVISTA) (Mus musculus, UniProt Q9D659); experiment: Cell-Based Binding High-Content Assay For mVISTA (HC CBA mVISTA); conditions: read-out: HC CBA mVISTA IC50
T1 construct: expressed in transfected cells; host or cells: Human embryonic kidney 293T cells
T1 sequence (Q9D659 33-308): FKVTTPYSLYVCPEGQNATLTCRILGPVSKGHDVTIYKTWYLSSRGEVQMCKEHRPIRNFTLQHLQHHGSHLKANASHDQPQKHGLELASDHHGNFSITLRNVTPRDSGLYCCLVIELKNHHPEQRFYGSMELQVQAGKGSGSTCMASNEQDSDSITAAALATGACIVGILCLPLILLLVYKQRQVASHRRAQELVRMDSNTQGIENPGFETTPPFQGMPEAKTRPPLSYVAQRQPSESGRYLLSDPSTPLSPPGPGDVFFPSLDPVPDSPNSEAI
How it was run: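 Read-out: Alexa 647–streptavidin signal imaged on fixed, Hoechst-stained mVISTA-293T cells, with IC50 taken from a four-parameter logistic curve. Compounds competed with 2 nM biotinylated peptide for 30 min at room temperature, tested under both no-wash and wash (1 h compound, media exchange, 1 h) formats.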

IC50 [nM]	Compound
37.9	CCCCCCN1CC(=O)N[C@@H](Cc2ccc(O)cc2)C(=O)N[C@@H](CC(C)C)C(=O)N[C@@H](CC(N)=O)C(=O)N[C@@H](CCCNC(=N)N)C(=O)N(C)[C@@H](CO)C(=O)N[C@@H](CCCCC)C(=O)N2CCC[C@H]2C(=O)N[C@@H](C(C)(C)C)C(=O)N[C@@H](CO)C(=O)N[C@H](C(=O)NCCOCCOCC(=O)N[C@@H](CCC(=O)NCCOCCOCC(=O)NCCCCCCCCCCC(=O)O)C(=O)O)CSCC(=O)N[C@@H](Cc2ccccc2)C(=O)N[C@@H](Cc2c[nH]c3ccccc23)C(=O)N[C@@H](CC(=O)O)C1=O [compound 2266] ({CH2CO}-FWD[NHexGly]YLNR[NMeS][Ahp(2)]P[Tle]SC[AEEA][γGlu][AEEA][Aun]-OH; thioether N-14)
28.9	CCCCCCN1CC(=O)N[C@@H](Cc2ccc(O)cc2)C(=O)N[C@@H](CC(C)C)C(=O)N[C@@H](CC(N)=O)C(=O)N[C@@H](CCCNC(=N)N)C(=O)N(C)[C@@H](CC(C)C)C(=O)N[C@@H](CCCCC)C(=O)N2CCC[C@H]2C(=O)N[C@@H](C(C)(C)C)C(=O)N[C@@H](CC(=O)O)C(=O)N[C@H](C(=O)NCCOCCOCC(=O)N[C@@H](CCC(=O)NCCOCCOCC(=O)NCCCCCCCCCCC(=O)O)C(=O)O)CSCC(=O)N[C@@H](Cc2ccccc2)C(=O)N[C@@H](Cc2ccc(O)cc2)C(=O)N[C@@H](CC(=O)O)C1=O [compound 2267] ({CH2CO}-FYD[NHexGly]YLNR[NMeL][Ahp(2)]P[Tle]DC[AEEA][γGlu][AEEA][Aun]-OH; thioether N-14)
16.1	CCCCCCN1CC(=O)N[C@@H](Cc2ccc(O)cc2)C(=O)N[C@@H](CC(C)C)C(=O)N[C@@H](CC(N)=O)C(=O)N[C@@H](CCCNC(=N)N)C(=O)N(C)[C@@H](CCCC)C(=O)N[C@@H](CCCCC)C(=O)N2CCC[C@H]2C(=O)N[C@@H](C(C)(C)C)C(=O)N[C@@H](CO)C(=O)N[C@H](C(=O)NCCOCCOCC(=O)N[C@@H](CCC(=O)NCCOCCOCC(=O)NCCCCCCCCCCC(=O)O)C(=O)O)CSCC(=O)N[C@@H](Cc2ccccc2)C(=O)N[C@@H](Cc2c[nH]c3ccccc23)C(=O)N[C@@H](CC(=O)O)C1=O [compound 2268] ({CH2CO}-FWD[NHexGly]YLNR[NMeNle][Ahp(2)]P[Tle]SC[AEEA][γGlu][AEEA][Aun]-OH; thioether N-14)
28.2	CCCCCCN1CC(=O)N[C@@H](Cc2ccc(O)cc2)C(=O)N[C@@H](CC(C)C)C(=O)N[C@@H](CC(N)=O)C(=O)N[C@@H](CCCNC(=N)N)C(=O)N(C)[C@@H](CC(C)C)C(=O)N[C@@H](CCCCC)C(=O)N2CCC[C@H]2C(=O)N[C@@H](C(C)(C)C)C(=O)N[C@@H](CC(=O)O)C(=O)N[C@H](C(=O)NCCOCCOCC(=O)N[C@@H](CCC(=O)NCCOCCOCC(=O)NCCCCCCCCCCC(=O)O)C(=O)O)CSCC(=O)N[C@@H](Cc2ccccc2)C(=O)N[C@@H](Cc2c[nH]c3ccccc23)C(=O)N[C@@H](CC(=O)O)C1=O [compound 2269] ({CH2CO}-FWD[NHexGly]YLNR[NMeL][Ahp(2)]P[Tle]DC[AEEA][γGlu][AEEA][Aun]-OH; thioether N-14)
18.8	CCCCCCN1CC(=O)N[C@@H](Cc2ccc(O)cc2)C(=O)N[C@@H](CC(C)C)C(=O)N[C@@H](CC(N)=O)C(=O)N[C@@H](CCCNC(=N)N)C(=O)N(C)[C@@H](CC(C)C)C(=O)N[C@@H](CCCCC)C(=O)N2CCC[C@H]2C(=O)N[C@@H](C(C)(C)C)C(=O)N[C@@H](CO)C(=O)N[C@H](C(=O)NCCOCCOCC(=O)N[C@@H](CCC(=O)NCCOCCOCC(=O)NCCCCCCCCCCC(=O)O)C(=O)O)CSCC(=O)N[C@@H](Cc2ccccc2)C(=O)N[C@@H](Cc2ccc(O)cc2)C(=O)N[C@@H](CC(=O)O)C1=O [compound 2270] ({CH2CO}-FYD[NHexGly]YLNR[NMeL][Ahp(2)]P[Tle]SC[AEEA][γGlu][AEEA][Aun]-OH; thioether N-14)
25.4	CCCCCCN1CC(=O)N[C@@H](Cc2ccc(O)cc2)C(=O)N[C@@H](CC(C)C)C(=O)N[C@@H](CC(N)=O)C(=O)N[C@@H](CCCNC(=N)N)C(=O)N(C)[C@@H](C(C)C)C(=O)N[C@@H](CCCCC)C(=O)N2CCC[C@H]2C(=O)N[C@@H](C(C)(C)C)C(=O)N[C@@H](CO)C(=O)N[C@H](C(=O)NCCOCCOCC(=O)N[C@@H](CCC(=O)NCCOCCOCC(=O)NCCCCCCCCCCC(=O)O)C(=O)O)CSCC(=O)N[C@@H](Cc2ccccc2)C(=O)N[C@@H](Cc2ccc(O)cc2)C(=O)N[C@@H](CC(=O)O)C1=O [compound 2271] ({CH2CO}-FYD[NHexGly]YLNR[NMeV][Ahp(2)]P[Tle]SC[AEEA][γGlu][AEEA][Aun]-OH; thioether N-14)
34.4	CCCCCCN1CC(=O)N[C@@H](Cc2ccc(O)cc2)C(=O)N[C@@H](CC(C)C)C(=O)N[C@@H](CC(N)=O)C(=O)N[C@@H](CCCNC(=N)N)C(=O)N(C)[C@@H](C(C)C)C(=O)N[C@@H](CCCCC)C(=O)N2CCC[C@H]2C(=O)N[C@@H](C(C)(C)C)C(=O)N[C@@H](CO)C(=O)N[C@H](C(=O)NCCOCCOCC(=O)N[C@@H](CCC(=O)NCCOCCOCC(=O)NCCCCCCCCCCC(=O)O)C(=O)O)CSCC(=O)N[C@@H](Cc2ccccc2)C(=O)N[C@@H](Cc2c[nH]c3ccccc23)C(=O)N[C@@H](CC(=O)O)C1=O [compound 2272] ({CH2CO}-FWD[NHexGly]YLNR[NMeV][Ahp(2)]P[Tle]SC[AEEA][γGlu][AEEA][Aun]-OH; thioether N-14)
33.6	CCCCCCN1CC(=O)N[C@@H](Cc2ccc(O)cc2)C(=O)N[C@@H](CC(C)C)C(=O)N[C@@H](CC(N)=O)C(=O)N[C@@H](CCCNC(=N)N)C(=O)N(C)[C@@H](C(C)O)C(=O)N[C@@H](CCCCC)C(=O)N2CCC[C@H]2C(=O)N[C@@H](C(C)(C)C)C(=O)N[C@@H](CC(=O)O)C(=O)N[C@H](C(=O)NCCOCCOCC(=O)N[C@@H](CCC(=O)NCCOCCOCC(=O)NCCCCCCCCCCC(=O)O)C(=O)O)CSCC(=O)N[C@@H](Cc2ccccc2)C(=O)N[C@@H](Cc2c[nH]c3ccccc23)C(=O)N[C@@H](CC(=O)O)C1=O (stereo partly shown) [compound 2273] ({CH2CO}-FWD[NHexGly]YLNR[NMeThr(3ξ)][Ahp(2)]P[Tle]DC[AEEA][γGlu][AEEA][Aun]-OH; thioether N-14)
18.8	CCCCCCN1CC(=O)N[C@@H](Cc2ccc(O)cc2)C(=O)N[C@@H](CC(C)C)C(=O)N[C@@H](CC(N)=O)C(=O)N[C@@H](CCCNC(=N)N)C(=O)N(C)[C@@H](C(C)C)C(=O)N[C@@H](CCCCC)C(=O)N2CCC[C@H]2C(=O)N[C@@H](C(C)(C)C)C(=O)N[C@@H](CC(=O)O)C(=O)N[C@H](C(=O)NCCOCCOCC(=O)N[C@@H](CCC(=O)NCCOCCOCC(=O)NCCCCCCCCCCC(=O)O)C(=O)O)CSCC(=O)N[C@@H](Cc2ccccc2)C(=O)N[C@@H](Cc2ccc(O)cc2)C(=O)N[C@@H](CC(=O)O)C1=O [compound 2274] ({CH2CO}-FYD[NHexGly]YLNR[NMeV][Ahp(2)]P[Tle]DC[AEEA][γGlu][AEEA][Aun]-OH; thioether N-14)
31.8	CCCCCCN1CC(=O)N[C@@H](Cc2ccc(O)cc2)C(=O)N[C@@H](CC(C)C)C(=O)N[C@@H](CC(N)=O)C(=O)N[C@@H](CCCNC(=N)N)C(=O)N(C)[C@@H](C(C)O)C(=O)N[C@@H](CCCCC)C(=O)N2CCC[C@H]2C(=O)N[C@@H](C(C)(C)C)C(=O)N[C@@H](CC(=O)O)C(=O)N[C@H](C(=O)NCCOCCOCC(=O)N[C@@H](CCC(=O)NCCOCCOCC(=O)NCCCCCCCCCCC(=O)O)C(=O)O)CSCC(=O)N[C@@H](Cc2ccccc2)C(=O)N[C@@H](Cc2ccc(O)cc2)C(=O)N[C@@H](CC(=O)O)C1=O (stereo partly shown) [compound 2275] ({CH2CO}-FYD[NHexGly]YLNR[NMeThr(3ξ)][Ahp(2)]P[Tle]DC[AEEA][γGlu][AEEA][Aun]-OH; thioether N-14)
30	CCCCCCN1CC(=O)N[C@@H](Cc2ccc(O)cc2)C(=O)N[C@@H](CC(C)C)C(=O)N[C@@H](CC(N)=O)C(=O)N[C@@H](CCCNC(=N)N)C(=O)N(C)[C@@H](C(C)C)C(=O)N[C@@H](CCCCC)C(=O)N2CCC[C@H]2C(=O)N[C@@H](C(C)(C)C)C(=O)N[C@@H](CC(=O)O)C(=O)N[C@H](C(=O)NCCOCCOCC(=O)N[C@@H](CCC(=O)NCCOCCOCC(=O)NCCCCCCCCCCC(=O)O)C(=O)O)CSCC(=O)N[C@@H](Cc2ccccc2)C(=O)N[C@@H](Cc2c[nH]c3ccccc23)C(=O)N[C@@H](CC(=O)O)C1=O [compound 2276] ({CH2CO}-FWD[NHexGly]YLNR[NMeV][Ahp(2)]P[Tle]DC[AEEA][γGlu][AEEA][Aun]-OH; thioether N-14)
21.2	CCCCCCN1CC(=O)N[C@@H](Cc2ccc(O)cc2)C(=O)N[C@@H](CC(C)C)C(=O)N[C@@H](CC(N)=O)C(=O)N[C@@H](CCCNC(=N)N)C(=O)N(C)[C@@H](CCCC)C(=O)N[C@@H](CCCCC)C(=O)N2CCC[C@H]2C(=O)N[C@@H](C(C)(C)C)C(=O)N[C@@H](C(C)C)C(=O)N[C@H](C(=O)NCCOCCOCC(=O)N[C@@H](CCC(=O)NCCOCCOCC(=O)NCCCCCCCCCCC(=O)O)C(=O)O)CSCC(=O)N[C@@H](Cc2ccccc2)C(=O)N[C@@H](Cc2ccc(O)cc2)C(=O)N[C@@H](CC(=O)O)C1=O [compound 2277] ({CH2CO}-FYD[NHexGly]YLNR[NMeNle][Ahp(2)]P[Tle]VC[AEEA][γGlu][AEEA][Aun]-OH; thioether N-14)
28.2	CCCCCCN1CC(=O)N[C@@H](Cc2ccc(O)cc2)C(=O)N[C@@H](CC(C)C)C(=O)N[C@@H](CC(N)=O)C(=O)N[C@@H](CCCN)C(=O)N(C)[C@@H](CCCC)C(=O)N[C@@H](CCCCC)C(=O)N2CCC[C@H]2C(=O)N[C@@H](C(C)(C)C)C(=O)N[C@@H](CO)C(=O)N[C@H](C(=O)NCCOCCOCC(=O)N[C@@H](CCC(=O)NCCOCCOCC(=O)NCCCCCCCCCCC(=O)O)C(=O)O)CSCC(=O)N[C@@H](Cc2ccccc2)C(=O)N[C@@H](Cc2ccc(O)cc2)C(=O)N[C@@H](CC(=O)O)C1=O [compound 2278] ({CH2CO}-FYD[NHexGly]YLN[Orn][NMeNle][Ahp(2)]P[Tle]SC[AEEA][γGlu][AEEA][Aun]-OH; thioether N-14)
